Laboratory results as given in patent US8263326B2, “Compounds and methods for modulating activation of NF-κB” (Signal Pharmaceuticals, LLC, priority 1998, dated 2012).
Non-standard residues stand in square brackets, D forms with d. No end group written: not given here. pS = N[C@@H](COP(=O)(O)O)C(=O)O

What was measured:
[1] = tested on: E-selectin expression in primary human vascular endothelial cells (HUVEC); assay: Microinjection into HUVEC, TNFα activation, E-selectin staining; assay type: cell-based; settings: microinjected peptide, TNFα 3 hours
Procedure: (§1) HeLa cells were plated on a grid coverslips (Cellocate, Eppendorf) 18 hours before microinjection. Microinjection was performed with a 22 amino acid pIκBα peptide (pp21; Table I and SEQ ID NO:9) or a control phospho-Fos peptide (SEQ ID NO: 10) using a semi-automated apparatus (Eppendorf). Peptides were injected into the cell cytoplasm at a concentration of 5 mg/ml in 100 mM KCl, 5 mM Na2HPO4 (pH 7.2), and immediately activated with TNFα (200 units/mL) for either 20 minutes (for NF-κB translocation) or 3 hours (for E-selectin expression). Following activation, the cells were fixed and stained with p65 specific antibodies (Mercurio et al., Genes & Dev. 7:705, 1993; Santa Cruz) or monoclonal anti-E-selectin antibodies (R&D Systems).
To further assess the functional consequences of NF-κB inhibition, the IκB-E3 inhibitory peptide was microinjected into primary human vascular endothelial cells (HUVEC; Chen et al, J. Immunol 155:3538, 1995). These cells respond to TNFα stimulation by surface expression of NF-κB regulated adhesion proteins, such as E-selection. HUVEC cells were plated, microinjected and stimulated as described above. Three hours post stimulation the cells were fixed and stained for expression of the NF-κB dependent E-selection. 75%-85% of the HUVEC cells were intensely stained for E-selectin following TNFα stimulation in several experiments. […] In contrast, the control pp-Fos peptide had no effect on E-selectin expression, as compared to non-microinjected cells (FIGS. 4F and 4H, column 4). Microinjection of a control, S32736A substituted IκBα peptide had no effect on the rate of E-selectin expression.

[2] = tested on: IκBα-ubiquitin ligase (pIκBα ubiquitination); assay: In vitro ubiquitination assay of phosphorylated, NF-κB complex-associated IκBα in HeLa cell extract; assay type: biochemical, human; settings: peptide at a concentration of 400 μM; Bestatin 40 μg/ml
Procedure: Following incubation, 1 μl of anti-p65 serum was added, and the NF-κB immune complex was immobilized to Protein A-Sepharose® and subjected to in vitro ubiquitination in HeLa cell extract as described by Alkalay et al. Ubiquitinated proteins were separated by SDS-PAGE and visualized by autoradiography.
To identify the IκBα-ubiquitin ligase recognition motif, various peptides were added at varying concentrations to the reaction mixtures in the presence of the peptidase inhibitor Bestatin (40 μg/ml). The peptides spanned the N-terminal signaling domain of the protein, and were phosphorylated at one or both serine residues (32 and 36), or were unmodified or serine-substituted. These peptides were included in the ubiquitination reaction at different concentrations and tested for inhibition of pIκBα specific ubiquitination. When conjugation of free IκBα was monitored, the translated protein was added directly to the conjugation reaction mixture.

IκB E3 in HeLa lysate = assay: Fractionation of HeLa lysate over peptide-Sepharose columns, flow-through tested in ubiquitination assay; assay type: binding, human; settings: peptide coupled to NHS-Sepharose, HeLa extract, FIG. 3A
Procedure: pIκBα-ubiquitin conjugation and degradation requires a full complement of the ubiquitin system enzymes: E1, a specific E2 derived from the ubiquitin system fraction I, E2F1 (Alkalay et al., Proc. Natl. Acad. Sci. USA 92:10599, 1995; Chen et al., Cell 84:853, 1996) and a Fraction II-component E3. To identify the ubiquitin system component involved in the substrate recognition, HeLa lysate was fractionated over IκBα phosphopeptide columns, and the flow-through fractions were assayed for pIκBα conjugation. Peptides were coupled to NHS-Sepharose® (Pharmacia) according to the manufacturer's instructions at a concentration of 2 mg/ml. 100 μg of HeLa extract were incubated with 2.5 μl coupled resin in the presence of 0.1% NP40 and 3% ovalbumin for 1 hour at 4° C. The resin was discarded and the unbound material tested in the ubiquitination assay described above.

pIκBα degradation = assay: Ubiquitin-dependent in vitro degradation assay with extracts from stimulated HeLa cells; assay type: biochemical, human; settings: 40 μM peptide, FIG. 2
Procedure: FIG. 2 is an autoradiogram depicting the results of an in vitro ubiquitin-dependent degradation assay performed using extracts from stimulated HeLa cells. In each lane of the SDS-PAGE, the level of phosphorylated (upper band) and non-phosphorylated (lower band) HA-tagged IκBα polypeptide (SEQ ID NO: 12) following the degradation assay is shown. […] In lanes 2-6, ATP was included in the reaction mixture. 40 μM candidate modulating agents were added to the reactions shown in lanes 3-6: doubly phosphorylated IκBα peptide (pp21 (SEQ ID NO:9), lane 3); doubly phosphorylated IκBα peptide (pp19 (SEQ ID NO:8), lane 4); c-Fos phosphopeptide (ppFos (SEQ ID NO: 10), lane 5); and non-phosphorylated IκBα peptide (p21 (SEQ ID NO:9), lane 6).
The inhibitory pIκBα peptides were tested in a complementary ubiquitin-dependent in vitro degradation assay (Orian et al., J. Biol. Chem. 270:21707, 1995; Stancovski et al., Mol. Cell. Biol. 75:7106, 1995). Using this assay, only pIκBα derived from stimulated cells is degraded in vitro in a ubiquitin-dependent manner, whereas the non-phosphorylated IκBα from the same cell extract is not subject to degradation.

[3] = tested on: NF-κB nuclear translocation in HeLa cells; assay: Microinjection into HeLa cells, TNFα activation, p65 nuclear staining; assay type: cell-based, human; settings: 5 mg/ml peptide microinjected
Procedure: as §1

pIκBα = target: T1, pIκBα (Homo sapiens, UniProt P25963); assay: Binding of immobilized FLAG-tagged E3 family members to IκBα/NF-κB complex (Western blot); settings: FIG. 11A
T1 construct: The IκBα/NF-κB complex was immunopurified from HeLa cells; endogenous in cells; host or cells: HeLa cells
Procedure: FIGS. 11A-11C are Western blots illustrating binding and ubiquitination specificity of E3 ubiquitin ligase family members. Within these figures, mβ-TrCP indicates mouse β-TrCP, hβ-TrCP indicates human β-TrCP, Δβ-TrCP indicates human β-TrCP with a deletion of the F box region and Slimb indicates the Drosophila Slimb protein. FIG. 11A illustrates selective binding to pIκBα. Proteins were immunoprecipitated through a FLAG epitope from transfected 293T cells, incubated with immunopurified IκBα/NF-κB complex, which had been treated (−/+IKK) as indicated and the bound material was analyzed by Western blotting with the indicated antibodies. […] FIG. 11C illustrates in vitro ubiquitination of pIκBα by the E3 family member proteins. Immunopurified FLAG-tagged proteins were incubated with ^35 S-labeled IκBα/NF-κB complexes, treated (−/+IKK) as indicated and subject to ubiquitination in the presence of ATPγS, ubiquitin. E1 and UBC5C. The IκBα substrate (composed of full-length and two degradation products), pIκBα-polyubiquitin conjugates and molecular size markers are indicated on the left.
The ability of these proteins to bind pIκBα specifically and assist in its ubiquitination was examined in a cell-free system. The IκBα/NF-κB complex was immunopurified from HeLa cells and the immune complex was either phosphorylated with IKK2-EE or mock-phosphorylated as described above. It was then incubated with the following immobilized FLAG-tagged E3 family members immunoprecipitated from transfected 293 cells: mouse β-TrCP (mβ-TrCP), human β-TrCP (hβ-TrCP), human β-TrCP with a deletion of the F box region residues 122-168 (Δβ-TrCP) and the Drosophila Slimb protein. The bound material was analyzed by Western blotting with anti-IκBα and anti-FLAG antibodies. […] Furthermore, β-TrCP binding was abrogated by a peptide representing the pIκBα recognition motif (pp10; DRHDS(PO3)GLDS(PO3)M (SEQ ID NO:29); see FIG. 11B, lane 3), but not by the control peptide (lane 4), specifying the site of pIκBα recognition of the conserved DS(PO3)GLDS(PO3) (SEQ ID NO:30) sequence.

T1 sequence (P25963 whole entry): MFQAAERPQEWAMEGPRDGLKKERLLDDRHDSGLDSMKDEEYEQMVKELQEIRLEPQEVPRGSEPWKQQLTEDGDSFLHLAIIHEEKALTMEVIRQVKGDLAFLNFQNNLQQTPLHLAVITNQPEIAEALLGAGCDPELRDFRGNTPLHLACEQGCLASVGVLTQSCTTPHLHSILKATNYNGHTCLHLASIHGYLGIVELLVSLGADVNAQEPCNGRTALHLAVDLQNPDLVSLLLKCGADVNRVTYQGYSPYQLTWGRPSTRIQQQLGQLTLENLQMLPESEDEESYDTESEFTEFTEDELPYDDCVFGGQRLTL
T1 sequence (Q04206 whole entry partner): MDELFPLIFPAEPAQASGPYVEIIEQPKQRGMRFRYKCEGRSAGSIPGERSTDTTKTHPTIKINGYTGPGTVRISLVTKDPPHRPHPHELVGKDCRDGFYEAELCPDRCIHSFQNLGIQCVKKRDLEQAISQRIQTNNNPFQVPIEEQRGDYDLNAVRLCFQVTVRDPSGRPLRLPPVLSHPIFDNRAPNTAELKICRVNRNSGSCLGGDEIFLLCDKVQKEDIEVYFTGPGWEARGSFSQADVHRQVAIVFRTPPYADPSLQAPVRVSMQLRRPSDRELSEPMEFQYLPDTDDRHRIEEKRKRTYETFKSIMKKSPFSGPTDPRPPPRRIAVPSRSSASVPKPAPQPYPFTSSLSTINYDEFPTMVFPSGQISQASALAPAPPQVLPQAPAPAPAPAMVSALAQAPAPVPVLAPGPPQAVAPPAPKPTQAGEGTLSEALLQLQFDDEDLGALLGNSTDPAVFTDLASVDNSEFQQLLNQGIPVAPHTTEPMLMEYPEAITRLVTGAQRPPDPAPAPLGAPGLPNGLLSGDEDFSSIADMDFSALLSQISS

Row | Molecule | effect on E-selectin expression [1] | effect on the ubiquitination of pIκB [2] | IκBα conjugation capacity of column flow-through fraction (IκB E3 in HeLa lysate) | effect on specific pIκBα degradation (pIκBα degradation) | other results
1 | p21 S/A: serine 32, 36 to alanine substituted IκBα peptide, SEQ ID NO:11 (CKKERLLDDRHDAGLDAMKDEE; listed as Homo sapiens) | no effect | no detectable effect | retained full IκBα conjugation capacity | – | –
2 | p21: non-phosphorylated IκBα peptide, SEQ ID NO:9 (CKKERLLDDRHDSGLDSMKDEE; listed as Homo sapiens) | – | no detectable effect | – | no effect | –
3 | pp21: doubly phosphorylated IκBα peptide, SEQ ID NO:9; 22 amino acid pIκBα peptide (CKKERLLDDRHD[pS]GLD[pS]MKDEE; listed as Homo sapiens) | – | – | – | – | microinjected cells with inhibition of E-selectin expression [1]: 70%-80%; microinjected cells in which TNFα-stimulated NF-κB activation was abolished ([3]; TNFα 200 units/mL 20 minutes, several experiments): 50%-70%
4 | ppFos: c-Fos phosphopeptide, SEQ ID NO:10, control (IGRRGKVEQLSPEEEEKRR; not fully specified (residue 11); also: phosphorylated, sites not given here; listed as Homo sapiens) | no effect | no detectable effect | retained full IκBα conjugation capacity | no effect | effect on the rate of NF-κB induced nuclear translocation ([3]; compared to non-microinjected cells): no effect
5 | mβ-TrCP: FLAG-tagged mouse β-TrCP, E3 family member (protein, left off: small tags and cut ends, FLAG-tagged mouse β-TrCP, E3 family member) MDPAEAVLQEKALKFMNSSEREDCNNGEPPRKIIPEKNSLRQTYNSCARLCINQETVCLTSTAMKTENCVAKAKLANGTSSMIVPKQRKLSASYEKEKELCVKYFEQWSESDQVEFVEHLISQMCHYQHGHINSYLKPMLQRDFITALPARGLDHIAENILSYLDAKSLCAAELVCKEWYRVTSDGMLWKKLIERMVRTDSLWRGLAERRGWGQYLFKNKPPDENAPPNSFYRALYPKIIQDIETIESNWRCGRHSLQRIHCRSETSKGVYCLQYDDQKIVSGLRDNTIKIWDKSTLECKRILTGHTGSVLCLQYDERVIITGSSDSTVRVWDVNAGEMLNTLIHHCEAVLHLRFNNGMMVTCSKDRSIAVWDMASPTDITLRRVLVGHRAAVNVVDFDDKYIVSASGDRTIKVWNTSTCEFVRTLNGHKRGIACLQYRDRLVVSGSSDNTIRLWDIECGACLRVLEGHEELVRCIRFDNKRIVSGAYDGKIKVWDLMAALDPRAPAGTLCLRTLVEHSGRVFRLQFDEFQIVSSSHDDTILIWDFLNDPAAHAEPPRSPSRTYTYISR | – | – | – | – | relative binding of IκBα / pIκBα (pIκBα; comparison between family members): far better than the highly homologous Drosophila protein; binding to IKK-phosphorylated versus mock-phosphorylated IκBα (pIκBα; FLAG-tagged protein from transfected 293 cells): exclusively bound IKK-phosphorylated, but not mock-phosphorylated, IκBα
